According to BigSolDB 2.1:

O=[N+]([O-])c1c(Cl)cc(Cl)c([N+](=O)[O-])c1Cl
solubility (mole fraction)
Conditions	278.15 K	283.15 K	288.15 K	293.15 K	298.15 K	303.15 K	308.15 K	311.15 K	313.15 K	318.15 K
in 1,2-dichloroethane	0.0536	0.0636	0.0732	0.0837	0.0961	0.108	0.123	–	0.144	0.168
in acetone	0.0844	0.0944	0.106	0.117	0.13	0.145	0.162	–	0.18	0.2
in acetonitrile	0.0224	0.0267	0.0313	0.0373	0.0447	0.0531	0.0635	–	0.0769	0.0928
in chloroform	0.0715	0.0892	0.0997	0.11	0.121	0.129	0.141	–	0.165	0.197
in dichloromethane	0.0668	0.0758	0.0869	0.0981	0.11	0.125	0.141	0.147	–	–
in ethanol	0.00389	0.00461	0.00539	0.0062	0.00712	0.00831	0.00969	–	0.0113	0.0132
in ethyl acetate	0.0768	0.0849	0.0947	0.105	0.116	0.13	0.145	–	0.16	0.177
in methanol	0.0034	0.00426	0.00698	0.0221	0.0422	0.0562	0.0718	–	0.0849	0.0909
in methyl acetate	0.074	0.0832	0.0943	0.109	0.124	0.14	0.156	–	0.173	0.19
in n-butanol	0.00475	0.00566	0.00668	0.00776	0.00906	0.0108	0.013	–	0.0157	0.0189
in n-propanol	0.00412	0.0049	0.00565	0.00668	0.00793	0.00921	0.0109	–	0.0132	0.0158
in tetrachloromethane	0.0155	0.0185	0.0224	0.0277	0.0341	0.0411	0.0492	–	0.0589	0.0695
